66 compounds from patent publication US10774051B2, “6-membered heterocyclic derivatives and pharmaceutical composition comprising the same” (Shionogi & Co., Ltd., priority 2015, dated 2020) can be followed below.

The target in the test is human P2X7 receptor (Homo sapiens, UniProt Q99572, R270H/Y155H). The test can be described thus: Evaluation of human P2X7 receptor inhibitory activity (Yo-Pro uptake, BzATP stimulation, FLIPR TETRA). Type of test: cell-based. The procedure: Stably expressing cell line (1321N1 cell transfected with the human P2X7 receptor gene (GenBank accession number NM_002562.5 including T606C and G952A SNP)) was used. The cells were seeded in a 384-well microtiter plate at a concentration of 8000 cells/well and cultured in the medium (10% fetal bovine serum, 25 mM HEPES, 1% penicillin and streptomycin in DMEM) for one day at 37° C. under 5% carbon dioxide atmosphere. After replacing with 20 μL of the HBSS buffer (20 mM HEPES, 55.6 mM D-glucose, 1×HBSS(−), pH7.4-7.5), 15 μL of 17.3 μM Yo-Pro solution in the HBSS buffer was added. The plate was placed in high-throughput cellular screening system FLIPR TETRA (Molecullar Devices, LLC.) and 15 μL of 130 μM BzATP solution in the HBSS buffer was added. Measurement of fluorescence intensity by FLIPR TETRA was started. After eight minutes, 15 μL of DMSO solutions containing different concentrations of the compound of the present invention as prepared by dilution with the HBSS buffer were dispensed to each well through the built-in automatic dispenser, and the measurement of fluorescence intensity was continued for 20 minutes. […] Changing values of fluorescence intensity by the compound of the present invention were calculated by difference between maximum and minimum fluorescence intensity for 20 minutes. Inhibition ratios (%) were calculated from the following equation:
[formula] IC50 was calculated using logistic approximation.

Setting [1] is: 1321N1 cells stably expressing human P2X7 receptor, BzATP stimulation, Yo-Pro uptake, read-out: IC50 (antagonistic activity for the human P2X7 receptor).
Setting [2] is: antagonistic activity for the human P2X7 receptor, read-out: IC50.
Setting [3] is: 1321N1 cells stably expressing human P2X7 receptor, BzATP stimulation, Yo-Pro uptake, read-out: IC50 (antagonistic activity for the human P2X7 receptor), class symbol.

Read-outs that look alike come from different tables or passages of the source.

As for `COc1cn(Cc2ccc(F)c(Cl)c2)c(Nc2cc3c(cc2C)OCO3)nc1=O` [Compound I-0742], under setting [1], the IC50 is 16 nM.

Regarding `CCOc1cc(C)c(Nc2nc(=O)c(F)cn2Cc2cc(F)c(F)c(F)c2)cc1F` [Compound I-1038], under setting [2], the IC50 was 10 to 100 nM.

On to `COc1cnc(Nc2cccc(Cl)c2C)n(Cc2ccc(F)c(Cl)c2)c1=O` [Compound I-0971], for which, under setting [2], the IC50 was 100 to 500 nM.

Consider `COc1cn(Cc2cc(F)cc(Cl)c2)c(Nc2cc(C)ccc2C)nc1=O` [Compound I-0445], for which the IC50 under setting [3] is 10 to 100 nM.

`CCc1cc(OC)c(OC)cc1Nc1nc(=O)c(OC)cn1Cc1ccc(F)cc1` [Compound I-0270]: the IC50 under setting [3] is less than 10 nM.

With `Cc1c(Cl)cccc1Nc1nc(=O)c(C)cn1Cc1ccccc1` [Compound I-0012], the IC50 under setting [3] fell in the range of 10 to 100 nM.

In the case of `COc1cn(Cc2cc(F)cc(Cl)c2)c(Nc2cccc(SC)c2C)nc1=O` [Compound I-0682], the IC50 under setting [2] was 10 to 100 nM.

For the compound `COc1cc(F)c(Nc2nc(=O)c(C)cn2Cc2cc(F)c(F)c(F)c2)cc1OC` [Compound I-1133], the IC50 under setting [2] lay in the range of 10 to 100 nM.

With `COc1cn(Cc2ccc(F)c(Cl)c2)c(Nc2cccc(OC(C)C)c2C)nc1=O` [Compound I-0515], under setting [3], the IC50 is 10 to 100 nM.

Turning to `Cc1ccc(-c2ncco2)cc1Nc1nc(=O)c(Cl)cn1Cc1cc(F)cc(F)c1` [Compound I-0854], the IC50 under setting [2] is less than 10 nM.

In the case of `COc1cn(Cc2cccc(F)c2)c(Nc2cc3sc(C)nc3cc2C)nc1=O` [Compound I-0559], the IC50 under setting [3] is 10 to 100 nM.

As to `COc1cn(Cc2ccccc2)c(Nc2cc(C)ccc2Cl)nc1=O` [Compound I-0146], the IC50 under setting [3] fell in the range of 10 to 100 nM.

With `COc1cc(Nc2nc(=O)c(F)cn2Cc2ccc(F)c(F)c2)c(C)cc1F` [Compound I-1052], under setting [2], the IC50 was less than 10 nM.

`CCOc1cn(Cc2ccccc2)c(Nc2cc(OC)c(OC)cc2CC)nc1=O` [Compound I-0893]: the IC50 under setting [2] was less than 10 nM.

`COc1cccc(Nc2nc(=O)c(OC)cn2Cc2ccc(F)cc2)c1C` [Compound I-0661]: the IC50 under setting [2] was less than 10 nM.

`COc1cn(Cc2cc(F)cc(F)c2)c(Nc2cc(C)cc3[nH]ccc23)nc1=O` [Compound I-0650]: the IC50 under setting [2] was 10 to 100 nM.

In the case of `COc1cn(Cc2cc(F)cc(Cl)c2)c(Nc2ccc(N3CCOCC3)cc2C)nc1=O` [Compound I-0612], the IC50 under setting [2] lay within 100 to 500 nM.

On to `COc1cc(C)c(Nc2nc(=O)c(C(N)=O)cn2Cc2cc(F)c(F)c(F)c2)cc1C` [Compound I-1081], for which, under setting [2], the IC50 lay in the range of 10 to 100 nM.

On to `Cc1cc(OC(F)(F)F)ccc1Nc1nc(=O)c(F)cn1Cc1cc(F)c(F)c(F)c1` [Compound I-1103], for which the IC50 under setting [2] lay in the range of 10 to 100 nM.

Regarding `COc1cc(C)c(Nc2nc(=O)c(OC)cn2Cc2ccccc2)cc1F` [Compound I-0718], the IC50 under setting [2] lay in the range of 10 to 100 nM.

With `COc1cn(Cc2ccc(F)c(F)c2)c(Nc2cccc(OC(F)F)c2C)nc1=O` [Compound I-0480], the IC50 under setting [1] was found to be 4 nM.

`COCc1cn(Cc2cc(F)c(F)c(F)c2)c(Nc2cc(OC)ccc2C)nc1=O` [Compound I-1138]: the IC50 under setting [2] lay within 10 to 100 nM.

For `COc1cn(Cc2ccc(F)c(Cl)c2)c(Nc2c(C)ccc(C)c2F)nc1=O` [Compound I-0927], the IC50 under setting [2] is less than 10 nM.

For the compound `CCOc1cc(Nc2nc(=O)c(OC)cn2Cc2cc(F)cc(Cl)c2)c(C)cc1C` [Compound I-0789], under setting [2], the IC50 is less than 10 nM.

Consider `COc1cc(C)c(Nc2nc(=O)c(OC)cn2Cc2cc(F)cc(Cl)c2)cc1Cl` [Compound I-0672], for which the IC50 under setting [2] was less than 10 nM.

`COc1cn(Cc2ccc(F)c(Cl)c2)c(Nc2cccc(C)c2C)nc1=O` [Compound I-0325]: the IC50 under setting [3] was less than 10 nM.

In the case of `CCOc1cc(C)c(Nc2nc(=O)c(OC)cn2Cc2cccc(Cl)c2)cc1C` [Compound I-0259], the IC50 under setting [3] was less than 10 nM.

With `COc1cn(Cc2cc(F)c(F)c(F)c2)c(Nc2ccccc2C)nc1=O` [Compound I-1097], the IC50 under setting [2] was 10 to 100 nM.

On to `CCc1cc(F)ccc1Nc1nc(=O)c(OC)cn1Cc1ccccc1` [Compound I-0400], for which the IC50 under setting [3] was in the range of 100 to 500 nM.

As to `COc1ccc(Nc2nc(=O)c(C(=O)O)nn2Cc2cc(F)c(F)c(F)c2)c(C)c1` [Compound I-1250], under setting [2], the IC50 is 100 to 500 nM.

Turning to `CCOc1ccc(C)c(Nc2nc(=O)c(F)cn2Cc2ccc(F)c(F)c2)c1` [Compound I-0999], the IC50 under setting [2] is less than 10 nM.

Turning to `COc1cn(Cc2ccccc2)c(Nc2cc(C)c(C)cc2C)nc1=O` [Compound I-0357], the IC50 under setting [3] was in the range of 500 to 1000 nM.

Consider `COc1cc(C)c(Nc2nc(=O)c(Cl)cn2Cc2ccccc2)cc1OC` [Compound I-0310], for which the IC50 under setting [3] fell in the range of 10 to 100 nM.

Turning to `CCOc1cn(Cc2ccccc2)c(Nc2cc(C)cc(OC)c2C)nc1=O` [Compound I-0717], the IC50 under setting [2] was less than 10 nM.

Regarding `COc1cccc(Nc2nc(=O)c(OC)cn2Cc2cc(F)cc(F)c2)c1Cl` [Compound I-0638], the IC50 under setting [2] is less than 10 nM.

For the compound `COc1cn(Cc2ccccc2)c(Nc2cc(Cl)ccc2C)nc1=O` [Compound I-0092], the IC50 under setting [3] was in the range of 100 to 500 nM.

With `Cc1c(Cl)cccc1Nc1cc(=O)n(C)c(=O)n1Cc1ccccc1` [Compound I-0990], the IC50 under setting [1] was determined as 320 nM.

As for `Cc1ccc(S(C)(=O)=O)cc1Nc1nc(=O)ccn1Cc1cc(F)c(F)c(F)c1` [Compound I-1134], under setting [2], the IC50 lay in the range of 10 to 100 nM.

Turning to `COc1cn(Cc2cc(F)cc(Cl)c2)c(Nc2cc(C(C)(C)O)ccc2C)nc1=O` [Compound I-0776], under setting [2], the IC50 is 10 to 100 nM.

For the compound `COc1cn(Cc2ccc(F)c(Cl)c2)c(Nc2cc(-c3cccn(C)c3=O)c(F)cc2C)nc1=O` [Compound I-0591], the IC50 under setting [2] fell in the range of 10 to 100 nM.

As for `Cc1ccc(-c2cccn(C)c2=O)cc1Nc1nc(=O)c(C)cn1Cc1cc(F)c(F)c(F)c1` [Compound I-1143], under setting [2], the 50% inhibitory concentration (IC50) is 10 to 100 nM.

Regarding `COc1cn(Cc2ccccc2)c(Nc2cc(F)c(F)cc2C)nc1=O` [Compound I-0359], the IC50 under setting [3] lay in the range of 500 to 1000 nM.

With `COc1cn(Cc2ccccc2)c(Nc2cccc(C)c2F)nc1=O` [Compound I-0761], the 50% inhibitory concentration (IC50) under setting [2] was in the range of 100 to 500 nM.

Take `COc1ccc(Nc2nc(=O)c(F)cn2Cc2cc(F)c(F)c(F)c2)c(OC)c1C` [Compound I-1243]: the IC50 under setting [2] was less than 10 nM.

On to `COc1cn(Cc2ccc(F)c(Cl)c2)c(Nc2cc(SC(F)(F)F)ccc2C)nc1=O` [Compound I-0546], for which the IC50 under setting [3] is 10 to 100 nM.

Turning to `COc1cn(Cc2ccc(F)c(F)c2)c(Nc2cccc(C)c2Cl)nc1=O` [Compound I-0482], under setting [3], the IC50 was less than 10 nM.

As for `COc1cc(Nc2nc(=O)c(OC)cn2Cc2ccc(F)c(F)c2)c(C)cc1Cl` [Compound I-0535], under setting [3], the IC50 was less than 10 nM.

As for `Cc1ccc(-c2nnco2)cc1Nc1nc(=O)c(Cl)cn1Cc1cc(F)c(F)c(F)c1` [Compound I-1157], the IC50 under setting [2] is less than 10 nM.

For the compound `COc1cn(Cc2ccccc2)c(NCc2ccccc2C(F)(F)F)nc1=O` [Compound I-0065], the IC50 under setting [3] fell in the range of 500 to 1000 nM.

For the compound `COc1cc(C)c(Nc2nc(=O)c(F)cn2Cc2cc(F)c(F)c(F)c2)cc1C(C)C` [Compound I-1070], under setting [2], the IC50 is 10 to 100 nM.

`Cc1cc(N(C)C)ccc1Nc1nc(=O)c(F)cn1Cc1cc(F)c(F)c(F)c1` [Compound I-1242]: the IC50 under setting [2] was less than 10 nM.

In the case of `COc1cn(Cc2ccccc2)c(Nc2cc(C)c(OC(F)(F)F)cc2C)nc1=O` [Compound I-0922], under setting [2], the IC50 was less than 10 nM.

Consider `COc1cc(Nc2nc(=O)c(F)cn2Cc2ccc(F)c(Cl)c2)c(C)cc1Cl` [Compound I-0533], for which the IC50 under setting [3] was less than 10 nM.

Turning to `COc1cn(Cc2cccc(C)c2)c(Nc2cccc(Cl)c2C)nc1=O` [Compound I-0044], the IC50 under setting [3] fell in the range of 10 to 100 nM.

On to `COc1cn(Cc2ccccc2)c(Nc2cc(C(C)C)ccc2C)nc1=O` [Compound I-0143], for which, under setting [3], the IC50 lay within 10 to 100 nM.

`COc1cn(Cc2cc(F)cc(F)c2)c(Nc2ccc3nc(C)sc3c2C)nc1=O` [Compound I-0860]: the IC50 under setting [2] fell in the range of 10 to 100 nM.

Turning to `COc1cc(C)cc(Nc2nc(=O)c(OC)cn2Cc2cccc(Cl)c2)c1C` [Compound I-0428], under setting [3], the IC50 was less than 10 nM.

Turning to `COc1ccc(Nc2nc(=O)c(OC)cn2Cc2ccc(F)c(Cl)c2)c(C)c1C` [Compound I-0394], the IC50 under setting [3] was less than 10 nM.

With `COc1cn(Cc2ccc(F)c(Cl)c2)c(Nc2cc(C#N)ccc2C)cc1=O` [Compound I-0957], the IC50 under setting [1] came out at 110 nM.

Take `COc1cc(Cn2cc(OC)c(=O)nc2Nc2cccc(Cl)c2C)ccc1F` [Compound I-0698]: the IC50 under setting [1] is 100 nM.

Take `COc1cn(Cc2ccc(F)c(F)c2)c(Nc2cc(C)c(C)cc2C)nc1=O` [Compound I-0277]: the IC50 under setting [3] was less than 10 nM.

For `COc1ccc(Nc2nc(=O)c(OC)cn2Cc2ccccc2)c(C)c1` [Compound I-0147], the IC50 under setting [3] was 10 to 100 nM.

As for `CCc1c(Nc2nc(=O)c(OC)cn2Cc2ccc(F)c(Cl)c2)cc(OC)cc1OC` [Compound I-0363], the IC50 under setting [3] was less than 10 nM.

Consider `COc1cn(Cc2ccccc2)c(Nc2cc(OC(F)(F)F)ccc2C)nc1=O` [Compound I-0691], for which the IC50 under setting [2] was in the range of 100 to 500 nM.

`Cc1ccc(N2CCCC2=O)cc1Nc1nc(=O)c(F)cn1Cc1cc(F)cc(F)c1` [Compound I-0700]: the IC50 under setting [2] is less than 10 nM.

Turning to `CCc1cc(F)c(OC)cc1Nc1nc(=O)c(OC)cn1Cc1cc(F)cc(Cl)c1` [Compound I-0816], the IC50 under setting [2] is less than 10 nM.

The IC50 is the concentration that gives 50% inhibition.
